Assay results published in BindingDB's records for doi:10.7270/Q2NV9GP9 (Burnham Center For Chemical Genomics, 2010).
Where a name gives a salt, the structure may show the parent alone.

What follows are compounds tested against T1, Apelin receptor (Homo sapiens, UniProt P35414) (assay: APJ agonists inducing beta-arrestin recruitment, dose response, cell-based, luminescence, uHTS hits (AID 488748)). Conditions: not given.
T1 sequence (P35414 whole entry): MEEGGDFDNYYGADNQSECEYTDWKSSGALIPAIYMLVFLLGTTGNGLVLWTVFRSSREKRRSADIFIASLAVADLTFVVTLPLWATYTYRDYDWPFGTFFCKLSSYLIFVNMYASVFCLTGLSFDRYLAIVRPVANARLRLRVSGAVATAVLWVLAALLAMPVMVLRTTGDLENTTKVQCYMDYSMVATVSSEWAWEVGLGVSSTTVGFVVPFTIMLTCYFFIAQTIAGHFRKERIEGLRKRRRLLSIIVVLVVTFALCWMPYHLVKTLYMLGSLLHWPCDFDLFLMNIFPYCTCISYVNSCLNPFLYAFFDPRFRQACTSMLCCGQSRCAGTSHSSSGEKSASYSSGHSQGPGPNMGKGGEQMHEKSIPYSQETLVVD

EC50 [µM] | SMILES
> 100 | COc1cc2c(cc1NC(=O)c1cccc([N+](=O)[O-])c1)oc1ccccc12 [SMR000187222]
> 100 | CCc1ccc2nc(N(CCCN(C)C)C(=O)c3ccc(S(=O)(=O)N4CCc5ccccc5C4)cc3)sc2c1 [MLS001239341]
> 100 | CN(C)CCCN(C(=O)c1ccc(S(=O)(=O)N2CCc3ccccc3C2)cc1)c1nc2ccc(F)cc2s1 [SMR000807789]
> 100 | Clc1ccccc1CSc1nnc(-c2ccncc2)o1 [2-{[(2-chlorophenyl)methyl]sulfanyl}-5-(pyridin-4-yl)-1,3,4-oxadiazole]
> 100 | CCOC(=O)C1C(Cn2cnc3ccccc32)=NC(=O)NC1c1cc(C)ccc1C (stereo unspecified) [ethyl 6-(benzimidazol-1-ylmethyl)-4-(2,5-dimethylphenyl)-2-oxidanylidene-3,4-dihydro-1H-pyrimidine-5-carboxylate]
> 100 | CCN(CC)CCNC(=O)c1cc(-c2cccnc2)nc2ccc(S(=O)(=O)N3CCC(C)CC3)cc12 [N-[2-(diethylamino)ethyl]-6-[(4-methyl-1-piperidinyl)sulfonyl]-2-(3-pyridinyl)-4-quinolinecarboxamide]
> 100 | CCOc1ccc2nc(O)c(CN(CCO)C(c3nnnn3C3CCCCC3)C(C)C)cc2c1 (stereo unspecified) [SMR000004541]
> 100 | COc1cc2c(cc1NC(=O)c1cc(-c3cccnc3)nc3ccc(C)cc13)oc1ccccc12 [N-(2-methoxydibenzofuran-3-yl)-6-methyl-2-pyridin-3-ylquinoline-4-carboxamide]
> 100 | CC1CCN(S(=O)(=O)c2ccc3nc(-c4ccccn4)cc(C(=O)NCCN(C)Cc4ccccc4)c3c2)CC1 [MLS000682486]
> 100 | CCOc1cc2[nH]c(=S)n(CCC(=O)N3CCc4ccccc4C3)c(=O)c2cc1OCC [3-[3-(3,4-dihydro-1H-isoquinolin-2-yl)-3-oxidanylidene-propyl]-6,7-diethoxy-2-sulfanylidene-1H-quinazolin-4-one]
> 100 | CCOc1cccc2sc(N(CCCN(C)C)C(=O)c3ccc(S(=O)(=O)N(C)Cc4ccccc4)cc3)nc12 [MLS001239362]
> 100 | CCC(c1nnnn1CCOC)N(Cc1ccc(C)cc1)Cc1cc2cc(OC)ccc2[nH]c1=O (stereo unspecified)
> 100 | CCOc1cc2[nH]c(=S)n(CC3CCCN3CC)c(=O)c2cc1OCC (stereo unspecified) [SMR000030998]
> 100 | Cc1ccc2nc(N(CCCN(C)C)C(=O)c3ccc(S(=O)(=O)N4CCc5ccccc5C4)cc3)sc2c1 [MLS001239478]
> 100 | COc1ccc(CN=Nc2cc(C)nc3ccc(OC)cc23)c(OC)c1
> 100 | CCCCC1=CC2=CC(=O)C(C)(OC(=O)C3CCCC3)C(=O)C2=CO1 (stereo unspecified) [cyclopentanecarboxylic acid (3-butyl-7-methyl-6,8-dioxo-2-benzopyran-7-yl) ester]
> 100 | CSc1cccc(NC(=S)NC(=O)CCc2ccccc2)c1 [N-[(3-methylsulfanylphenyl)carbamothioyl]-3-phenyl-propanamide]
> 100 | CCCc1cc(C(=O)Nc2sc3c(c2C(=O)OCC)CCCC3)no1 [MLS000116384]
> 100 | CC1CCCCN1S(=O)(=O)c1ccc(C(=O)N(CCCN(C)C)c2nc3ccc(Br)cc3s2)cc1 (stereo unspecified)
> 100 | NC(=NOS(=O)(=O)c1ccc2ccccc2c1)c1ccncc1 [N'-[(2-naphthylsulfonyl)oxy]-4-pyridinecarboximidamide]

EC50 [µM] | SMILES
> 100 | CCSc1nc(O)c(CC)c(=O)n1C(C)CC (stereo unspecified) [SMR000103074]
> 100 | CCCCC1=CC2=CC(=O)C(C)(OC(=O)CC)C(=O)C2=CN1c1ccccc1 (stereo unspecified) [CMLD003542]
> 100 | Clc1cccc(CN2CCc3c([nH]c4ccccc34)C2)c1
> 100 | CCC(C)NC(=O)CSC1=Nc2ccccc2C2=NC(CC(=O)NCc3ccccc3)C(=O)N12 (stereo unspecified) [2-[5-[2-(butan-2-ylamino)-2-oxidanylidene-ethyl]sulfanyl-3-oxidanylidene-2H-imidazo[1,2-c]quinazolin-2-yl]-N-(phenylmethyl)ethanamide]
> 100 | O=C(Cn1ncc2c([nH]c3ccccc32)c1=O)Nc1ccc(CN2CCCCC2)cc1 [SMR000629297]
> 100 | COc1ccc(OC)c2sc(N(CCCN(C)C)C(=O)c3ccc(S(=O)(=O)N4CCc5ccccc5C4)cc3)nc12 [MLS001239200]
7.9 | CCN1C(c2ccccc2)=C(c2ccccc2)S/C1=C\C=C1/SC(=S)N(C)C1=O [MLS000526292]
> 100 | Cc1ccc2nc(NNC(=O)c3ccc(S(=O)(=O)N4CCc5ccccc5C4)cc3)sc2c1 [SMR000235768]
> 100 | Cc1ccc(C=NNC(=O)CSc2nnc(-c3ccc(Cl)cc3)n2-c2ccccc2)o1 [SMR000218122]
> 100 | CN(C)CCCN(C(=O)c1cc2cc([N+](=O)[O-])ccc2s1)c1nc2cc3c(cc2s1)OCCO3 [SMR000807865]
> 100 | Cc1ccc2nc(C(C#N)=Cc3ccc([N+](=O)[O-])o3)[nH]c2c1
> 100 | CCOc1cc2[nH]c(=S)n(CCN3CCC(C)CC3)c(=O)c2cc1OCC [6,7-diethoxy-3-[2-(4-methyl-1-piperidinyl)ethyl]-2-sulfanylidene-1H-quinazolin-4-one]
> 100 | COc1cccc2sc3cc(NCC[C@@H]4CCCN4C)ccc3c(=O)c12
> 100 | COC/C=C/C1=CC2=CC(=O)C(C)(OC(=O)c3cnc4ccccc4n3)C(=O)C2=CN1c1ccccc1 (stereo unspecified)
> 100 | CCC(C)NC(=O)CSC1=Nc2ccccc2C2=NC(CC(=O)NCc3ccc(F)cc3)C(=O)N12 (stereo unspecified)
> 100 | CCOc1cccc2sc(N(CCCN(C)C)C(=O)c3ccc(S(=O)(=O)N4CCc5ccccc5C4)cc3)nc12 [4-(3,4-dihydro-1H-isoquinolin-2-ylsulfonyl)-N-[3-(dimethylamino)propyl]-N-(4-ethoxy-1,3-benzothiazol-2-yl)benzamide;hydrochloride]
> 100 | COc1ccc2nc(O)c(C(c3nnnn3CC3CCCO3)N3CCc4ccccc4C3)cc2c1 (stereo unspecified) [3-{(3,4-Dihydro-1H-isoquinolin-2-yl)-[1-(tetrahydro-furan-2-ylmethyl)-1H-tetrazol-5-yl]-methyl}-6-methoxy-1H-quinolin-2-one]
> 100 | CCN(CC)CCNC(=O)c1ccc(NC(=O)c2cc(-c3ccco3)nc3ccccc23)cc1
> 100 | COc1ccc2sc(N(CCCN(C)C)C(=O)c3ccc(S(=O)(=O)N4CCc5ccccc5C4)cc3)nc2c1 [MLS001239377]
> 100 | CN(C)CCCN(C(=O)c1ccc(S(=O)(=O)N2CCc3ccccc3C2)cc1)c1nc2c(F)cccc2s1 [SMR000807825]

EC50 [µM] | SMILES
> 100 | COc1cc2c(cc1NC(=O)c1cc(-c3ccncc3)nc3ccc(C)cc13)oc1ccccc12
> 100 | CC(C)(C)OC(=O)NCCCCCc1cn([C@@H](CO)C(=O)NCCCCCCCCCCC(=O)N2CCN(C(=O)OC(C)(C)C)CC2)nn1 [Boc-KS]
> 100 | CCCCNc1c(-c2cccc(-c3ccc(OC)cc3)c2)nc2ccc(C)cn12 [N-butyl-2-[3-(4-methoxyphenyl)phenyl]-6-methylimidazo[1,2-a]pyridin-3-amine;2,2,2-trifluoroacetic acid]
> 100 | COc1cccc2sc3ccc(NCCC4CCCN4C)cc3c(=O)c12 (stereo unspecified) [MLS001249993]
> 100 | COC(=O)CCCC1=CC2=CC(=O)C(C)(OC(=O)c3cccs3)C(=O)C2=CN1C1CCCCC1 (stereo unspecified) [[2-cyclohexyl-3-(4-methoxy-4-oxobutyl)-7-methyl-6,8-dioxoisoquinolin-7-yl] thiophene-2-carboxylate]
> 100 | CCOc1ccc2nc(N(CCCN(C)C)C(=O)c3ccc(S(=O)(=O)N4CCc5ccccc5C4)cc3)sc2c1
> 100 | COc1cccc2sc(N(CCCN(C)C)C(=O)c3ccc(S(=O)(=O)N4CCc5ccccc5C4)cc3)nc12 [MLS001239312]
> 100 | Cc1ccc(C=NNC(=O)CSc2nnc(-c3ccccc3)n2-c2ccc(Cl)cc2)o1 [SMR000217660]
78.9 | C=CCSc1nc(O)c(CC)c(=O)n1C(C)CC (stereo unspecified) [1-butan-2-yl-5-ethyl-6-oxidanyl-2-prop-2-enylsulfanyl-pyrimidin-4-one]
> 100 | COc1cc(NC(=S)NC(=O)CCc2ccccc2)cc(OC)c1 [SMR000668635]
> 100 | CC1(OC(=O)C2CCCC2)C(=O)C=C2C=C(c3ccsc3)N(C3CCCC3)C=C2C1=O (stereo unspecified) [SMR000452667]
> 100 | CC1CCN(S(=O)(=O)c2ccc3nc(N4CCN(c5ccccc5)CC4)ccc3c2)CC1 [SMR000630335]
> 100 | Cc1cc(C)c2sc(NNC(=O)c3ccc(S(=O)(=O)N4CCc5ccccc5C4)cc3)nc2c1
> 100 | Cc1cc(C)c2nc(NNC(=O)c3ccc(S(=O)(=O)N4CCc5ccccc5C4)cc3)sc2c1
> 100 | CC(C)C(=O)N1CCN(c2ccc(NC(=O)COc3ccccc3[N+](=O)[O-])cc2)CC1 [N-[4-(4-isobutyryl-1-piperazinyl)phenyl]-2-(2-nitrophenoxy)acetamide]
> 100 | Cc1cc(C)c2sc(N(CCCN(C)C)C(=O)c3ccc(S(=O)(=O)N4CCc5ccccc5C4)cc3)nc2c1 [MLS001239249]
> 100 | CCOc1ccc2nc(O)c(CN(Cc3ccco3)C(CC)c3nnnn3Cc3ccccc3)cc2c1 (stereo unspecified) [3-({[1-(1-Benzyl-1H-tetrazol-5-yl)-propyl]-furan-2-ylmethyl-amino}-methyl)-6-ethoxy-1H-quinolin-2-one]
> 100 | COc1ccc2[nH]c(=O)c(CN(Cc3ccco3)C(c3nnnn3Cc3ccccc3)C(C)C)cc2c1 (stereo unspecified) [SMR000123514]

SMILES | EC50 [µM]
CCCSc1nc(O)c(CC)c(=O)n1C(C)CC (stereo unspecified) [1-butan-2-yl-5-ethyl-6-oxidanyl-2-propylsulfanyl-pyrimidin-4-one] | 56.9

Same assay, conditions: inactive by the depositor's call

EC50 [µM] | SMILES
45.9 | CCc1nnc(NC(=O)CSc2nc3cccnc3n2C2CCCCC2)s1 [MLS000073979]
77.6 | CCCCC1=CC2=CC(=O)C(C)(OC(=O)CC)C(=O)C2=CN1C1CCCCC1 (stereo unspecified)
